Measurements: patent US10987357B2, “Aerosolized fluoroquinolones and uses thereof” (Horizon Orphan, LLC, priority 2005, dated 2021)
Read-outs that look alike come from different tables or passages of the source.

Tests used:
[1] = tested on: Streptococcus pneumonia (Sp); details: cited from earlier work; for Sp MIC90: Table 7; for SP MIC90: Table 6
Sa = details: Table 7; cited from earlier work
[2] = tested on: methicillin resistant Staphylococcus aureus (MRSA); details: cited from earlier work
[3] = tested on: Pseudomonas aeruginosa (Pa); details: cited from earlier work
[4] = Rat pharmacokinetic model (IV vs microspray aerosol, intratracheal); assay type: in vivo, rats; details: 10 mg/kg; for AUC / AUC(0-inf) / half-life: rat; for AUC: epithelial lining fluid (ELF); for AUC(0-inf) / half-life: serum; for half-life: read-out: Serum t1/2 (converted)
Experimental: […] Blood samples are taken at various times over 3 hours to determine the plasma pharmacokinetic parameters. […] The plasma and tissue concentrations are determined by an HPLC method and the data are then fit using WinNonlin.

[5] = tested on: P. aeruginosa strain PAM 1723; assay: Mouse lung infection efficacy model; details: Pseudomonas aeruginosa, PAM1723, in Mus musculus
Experimental: The inoculum is adjusted to ca. 5×10^6 CFU/ml by correlation of absorbance at 600 nm with predetermined plate counts. […] On day 5, mice are infected by an intratracheal instillation of 0.05 ml of inoculum while under isoflurane anesthesia (5% isoflurane in oxygen running at 4 L/min). […] Mice are sacrificed 1 and 4 hours after treatment, their lungs removed, homogenized and plated to determine colony counts.

physchem = assay: physchem
Experimental: A 2 to 20 mg sample of each antibiotic was weighed into sterile plastic tubes and brought up with a volume of sterile water to make a 10 mg/mL solution or suspension of the antibiotic. Samples were incubated for approximately 10 minutes at room temperature with occasional mixing, prior to further handling.
The insoluble solutions were titrated with 1N HCl to the point of visible solubility, and the pH of the solubilized solution determined.
After the pH adjustment, and following a further 10 minute incubation period with occasional mixing, the final appearance of the solutions was determined, just prior to the aerosol tolerability and taste test.

MSSA = details: Table 6; cited from earlier work
[6] = in vivo
Experimental: In the second test, the tolerability and taste of a small aerosol sample from a 0.5 ml aliquot of the test formulation was determined in a single healthy human volunteer, following nebulization in a PARI eFlow nebulizer (Table 12).
The tolerability and taste of the drug during a very brief administration period and for a period of 10 minutes post administration were monitored. Tolerability parameters were of the following types: (i) cough, cough sensation, or sneezing (ii) irritation, burning or tightness of throat, (ii) irritation or runniness in nasal passages or eyes, (iii) irritation, burning or tightness of the lungs or shortness of breadth, and (iv) dizziness, headache, nausea or other systemic effects.

Compound | Sp MIC90 [1] [µg/mL] | Sa MIC90 (Sa) [µg/mL] | MRSA MIC90 ([2]; Table 7) [µg/mL] | Pa MIC90 ([3]; Table 7) [µg/mL] | further results
CNC1CCCN(c2c(F)cc3c(=O)c(C(=O)O)cn(C4CC4)c3c2OC)C1 (stereo not drawn) [Balofloxacin] | 0.5 | 0.25 | 8 | 32 | 
NC1CCN(c2c(F)cc3c(=O)c(C(=O)O)cn(C4CC4)c3c2Cl)C1 (stereo not drawn) [Clinafloxacin] | 0.06 | 0.06 | 2 | 4 | AUC ([4]; inhaled or intranasal, IT): 30.8 µg·h/mL; AUC(0-inf) ([4]; inhaled or intranasal, IT): 3.2 µg·h/mL; half-life ([4]; inhaled or intranasal, IT): 44.4 min; log reduction at 10 mg/kg ([5]; 1 h, read-out: DeltaLOG CPU 1 hr, route IT, dose 10 mg/kg, 1 hr post-drug administration): 2.71; log reduction at 25 mg/kg ([5]; 1 h, read-out: DeltaLOG CPU 1 hr, route IT, dose 25 mg/kg, 1 hr post-drug administration): 2.86; log reduction at 10 mg/kg ([5]; 4 h, read-out: DeltaLOG CPU 4 hr, route IT, dose 10 mg/kg, 4 hr post-drug administration): 2.4; log reduction at 25 mg/kg ([5]; 4 h, read-out: DeltaLOG CPU 4 hr, route IT, dose 25 mg/kg, 4 hr post-drug administration): 2.47; log reduction at 10 mg/kg ([5]; ip, 1 h, read-out: DeltaLOG CPU 1 hr, route IP, dose 10 mg/kg, 1 hr post-drug administration): 0.96; log reduction at 25 mg/kg ([5]; ip, 1 h, read-out: DeltaLOG CPU 1 hr, route IP, dose 25 mg/kg, 1 hr post-drug administration): 1.32; log reduction at 10 mg/kg ([5]; ip, 4 h, read-out: DeltaLOG CPU 4 hr, route IP, dose 10 mg/kg, 4 hr post-drug administration): 1.39; log reduction at 25 mg/kg ([5]; ip, 4 h, read-out: DeltaLOG CPU 4 hr, route IP, dose 25 mg/kg, 4 hr post-drug administration): 1.33
CN1C[C@@H]2C[C@H]1CN2c1cc2c(cc1F)c(=O)c(C(=O)O)cn2C1CC1 [Danofloxacin] |  | 0.125 |  | >16 | 
CN1CCN(c2cc3c(cc2F)c(=O)c(C(=O)O)cn3-c2ccc(F)cc2)CC1 [Difloxacin] | 2 | 0.5 |  | 32 | 
CCn1cc(C(=O)O)c(=O)c2cc(F)c(N3CCNCC3)nc21 [Enoxacin] | 16 | 1 | >4 | >32 | 
CCN1CCN(c2cc3c(cc2F)c(=O)c(C(=O)O)cn3C2CC2)CC1 [Enrofloxacin] | 1 | 0.125 | 8 | >16 | 
CN1CCN(c2c(F)cc3c(=O)c(C(=O)O)cn(CCF)c3c2F)CC1 [Fleroxacin] | 8 | 1 | >4 | 32 | 
C[C@H]1NCc2cc(-c3ccc4c(=O)c(C(=O)O)cn(C5CC5)c4c3OC(F)F)ccc21 [Garenoxacin] | 0.06 | 0.06 | 8 | >32 | 
Cc1c(F)c(N2CCNC(C)C2)cc2c1c(=O)c(C(=O)O)cn2C1CC1 (stereo not drawn) [Grepafloxacin] | 0.5 | 0.125 | 32 | >32 | 
CN1CCN(c2c(F)cc3c(=O)c(C(=O)O)cn4c3c2OCN4C)CC1 [Marbofloxacin] |  |  |  |  | Initial Solution pH (physchem; 10 mg/mL in sterile water): 6.5; Initial Solution Appearance (physchem; 10 mg/mL in sterile water, room temperature): white, very turbid, visible; After pH Adjustment Appearance (physchem; 10 mg/mL, titrated with 1N HCl): White, turbid, visible; After pH Adjustment pH (physchem; 10 mg/mL, titrated with 1N HCl): 1.5; pH of final solution (physchem; final solution, 10 mg/mL): 1.5; solubility on titration with 1N HCl (physchem; pH 1.5): solubility was not reached by pH 1.5; SP MIC90 [1]: 2 µg/mL; MSSA MIC90 (MSSA): 2 µg/mL; Pa MIC90 ([3]; Table 6): 8 µg/mL
COc1c(N2C[C@@H]3CCCN[C@@H]3C2)c(F)cc2c(=O)c(C(=O)O)cn(C3CC3)c12 [Moxifloxacin] |  |  |  |  | solubility/pH characteristics (physchem): best solubility/pH characteristics; solubility at 10 min (physchem; aqueous buffer, thermodynamic from solid): > 10000 µg/mL; Aerosol Tolerability and Taste [6]: moderate bitter unpleasant taste, some; cough on aerosol exposure [6]: associated with cough
CCn1cc(C(=O)O)c(=O)c2cc(F)c(N3CCNCC3)cc21 [Norfloxacin] | 16 | 1 | >4 | 16 | F, % from Lung vs. IV ([4]; IT): 100%; AUC ([4]; inhaled or intranasal, IT): 41.7 µg·h/mL; AUC ([4]; iv): 3.27 µg·h/mL
Cc1c(N2C[C@@H](N)C3(CC3)C2)c(F)c(N)c2c(=O)c(C(=O)O)cn(C3CC3)c12 [Olamufloxacin] | 0.06 | 1 | 2 | 16 | 
C[C@H]1COc2c(C3(N)CC3)c(F)cc3c(=O)c(C(=O)O)cn1c23 [Pazufloxacin] | 4 | 0.5 | >16 | >32 | 
CCn1cc(C(=O)O)c(=O)c2cc(F)c(N3CCN(C)CC3)cc21 [Pefloxacin] |  |  |  |  | SP MIC90 [1]: 32 µg/mL; MSSA MIC90 (MSSA): 2 µg/mL; MRSA MIC90 ([2]; Table 6): >32 µg/mL; Pa MIC90 ([3]; Table 6): >32 µg/mL
Cc1oc(=O)oc1CN1CCN(c2cc3c(cc2F)c(=O)c(C(=O)O)c2n3C(C)S2)CC1 (stereo not drawn) [Prulifloxacin] | 1 | 0.25 | 32 | 16 | 
CN1CCN(c2c(F)cc3c(=O)c(C(=O)O)cn4c3c2SCC4)CC1 [Rufloxacin] | 32 | 2 | 64 | 32 | 
O=C(O)c1cn(-c2ccc(F)cc2)c2cc(N3CCNCC3)c(F)cc2c1=O [Sarafloxacin] |  | 0.25 | >16 | >16 | 
N[C@@H]1CN(c2c(F)cc3c(=O)c(C(=O)O)cn([C@@H]4C[C@@H]4F)c3c2Cl)CC12CC2 [Sitafloxacin] | 0.06 | 0.125 | 4 | 8 | 
NC[C@H]1O[C@H](O[C@H]2[C@H](O)[C@@H](O[C@H]3O[C@H](CO)[C@@H](O)[C@H](N)[C@H]3O)[C@H](N)C[C@@H]2N)[C@H](N)C[C@@H]1O [Tobramycin] |  |  |  |  | F, % from Lung vs. IV ([4]; IT): 81%; AUC ([4]; inhaled or intranasal, IT): 5150 µg·h/mL; AUC ([4]; iv): 27.6 µg·h/mL; AUC(0-inf) ([4]; inhaled or intranasal, IT): 13.8 µg·h/mL; half-life ([4]; inhaled or intranasal, IT): 60 min; AUC(0-inf) ([4]; iv): 15.7 µg·h/mL; half-life ([4]; iv): 30 min; log reduction at 5 mg/kg ([5]; 1 h, read-out: DeltaLOG CPU 1 hr, route IT, dose 5 mg/kg, 1 hr post-drug administration): 1.59; log reduction at 5 mg/kg ([5]; 4 h, read-out: DeltaLOG CPU 4 hr, route IT, dose 5 mg/kg, 4 hr post-drug administration): 0.94; log reduction at 5 mg/kg ([5]; ip, 1 h, read-out: DeltaLOG CPU 1 hr, route IP, dose 5 mg/kg, 1 hr post-drug administration): 0.7; log reduction at 5 mg/kg ([5]; ip, 4 h, read-out: DeltaLOG CPU 4 hr, route IP, dose 5 mg/kg, 4 hr post-drug administration): -0.29
